Data reported in EP4678638A1, “NEW E3 UBIQUITIN LIGASE LIGAND, PROTEIN DEGRADATION AGENT AND USE THEREOF” (priority 2023, dated 2024).

Experiments:
ALK = target: T1, ALK (Homo sapiens, UniProt Q96SW2+Q9HC35+Q9UM73); assay: Western blot degradation of ALK (H2228 Cell); assay type: cell-based; conditions: Table D5
T1 construct: evaluate the effects of the compounds of the present disclosure on the expression of target proteins in cells; endogenous in cells; host or cells: H2228
Experimental: Conventional Western blot assay was performed to evaluate the effects of the compounds of the present disclosure on the expression of target proteins in cells.
(1) Cell Seeding and Protein Harvesting: The selected cells were processed according to the cell seeding procedure and protein harvesting procedure in Table III-2. Table III-2 Cell Seeding and Protein Harvesting Procedures
(2) To the collected supernatant, 5X SDS sample loading buffer was added, followed by denaturation at 95°C for 5 minutes. The denatured samples were then separated by SDS-PAGE electrophoresis on a polyacrylamide gel. Proteins were transferred to a nitrocellulose membrane (0.45 µm NC membrane), blocked with blocking buffer at room temperature for 1 hour, and subjected to antibody incubation and development procedures according to the antibody manufacturer's instructions (Cell Signaling Technology).
Half-Maximal Degradation Concentration value (the drug concentration required for degrading proteins by 50%, abbreviated as DC50) reads method: comparing the grayscale values of Western blot bands from drug-treated samples with those from blank DMSO-treated controls, and identifying the drug concentration range at which the grayscale value is half that of the DMSO-treated control bands.
DC50 values can be calculated using ImageJ software to measure grayscale values of Western blot bands from drug-treated samples. The concentration-response curve is fitted to estimate the drug concentration corresponding to half the grayscale value.
Target protein remaining (%) refers to the percentage of target protein remaining in hPBMC cells after treatment with protein degrader compounds.
Calculation method for target protein remaining (%): Use ImageJ software to measure grayscale values of Western blot bands from drug (protein degrader)-treated samples. The grayscale value of drug-treated bands is divided by that of internal control protein bands, and the resulting quotient is normalized to obtain the relative percentage of remaining target protein after protein degrader treatment.
Target protein degradation rate (%) = 100% - target protein remaining (%).

H1975 = assay: CCK-8 proliferation, NCI-H1975 (H1975); assay type: cell-based, Human; conditions: Homo sapiens, NCI-H1975; Table B6, compounds designed based on the ALK inhibitors; H1975 cells; read-out: Inhibitory activity (IC50, nM) on tumor cell proliferation, H1975
Outline: (§1)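 CCK-8 viability readout; IC50 from growth-inhibition curve fitting. Cells plated, dosed 24h later with a 10-point series, top 10µM, 5-fold steps. Culture at 37°C, 5% CO2.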

SR = assay: CCK-8 proliferation, SR; assay type: cell-based, Human; conditions: Homo sapiens; Table B6, compounds designed based on the ALK inhibitors; SR cells; read-out: Inhibitory activity (IC50, nM) on tumor cell proliferation, SR
Outline: as §1

H2228 = assay: CCK-8 proliferation, NCI-H2228 (H2228); assay type: cell-based; conditions: Homo sapiens, NCI-H2228; Table B6, compounds designed based on the ALK inhibitors; H2228 cells; read-out: Inhibitory activity (IC50, nM) on tumor cell proliferation, H2228
Outline: as §1

MCF7 = assay: CCK-8 proliferation, MCF7 (MCF-7); assay type: cell-based; conditions: Homo sapiens, MCF7; Table B6, compounds designed based on the ALK inhibitors; MCF-7 cells; read-out: Inhibitory activity (IC50, nM) on tumor cell proliferation, MCF-7
Outline: as §1

T1 sequence (Q9HC35+Q9UM73 fused): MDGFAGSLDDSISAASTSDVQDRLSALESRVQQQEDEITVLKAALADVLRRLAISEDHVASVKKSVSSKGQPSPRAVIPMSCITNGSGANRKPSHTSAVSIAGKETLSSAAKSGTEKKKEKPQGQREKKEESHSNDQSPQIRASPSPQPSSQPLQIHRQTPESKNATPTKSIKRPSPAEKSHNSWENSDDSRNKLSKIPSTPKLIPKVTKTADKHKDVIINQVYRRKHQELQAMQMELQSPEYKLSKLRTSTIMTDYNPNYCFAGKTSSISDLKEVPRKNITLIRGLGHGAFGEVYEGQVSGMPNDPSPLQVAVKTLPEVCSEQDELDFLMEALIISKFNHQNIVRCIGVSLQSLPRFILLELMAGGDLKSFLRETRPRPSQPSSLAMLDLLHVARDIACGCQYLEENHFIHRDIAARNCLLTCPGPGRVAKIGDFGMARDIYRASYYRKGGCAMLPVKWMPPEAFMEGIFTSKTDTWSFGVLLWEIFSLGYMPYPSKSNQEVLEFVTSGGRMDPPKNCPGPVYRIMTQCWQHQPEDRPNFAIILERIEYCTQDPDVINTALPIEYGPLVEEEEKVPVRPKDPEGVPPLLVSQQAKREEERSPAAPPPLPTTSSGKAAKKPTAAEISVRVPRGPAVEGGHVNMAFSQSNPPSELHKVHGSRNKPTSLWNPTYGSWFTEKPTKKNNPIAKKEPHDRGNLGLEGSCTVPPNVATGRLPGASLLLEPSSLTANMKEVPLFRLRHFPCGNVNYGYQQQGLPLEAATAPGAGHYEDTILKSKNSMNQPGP
T1 sequence (Q96SW2 whole entry): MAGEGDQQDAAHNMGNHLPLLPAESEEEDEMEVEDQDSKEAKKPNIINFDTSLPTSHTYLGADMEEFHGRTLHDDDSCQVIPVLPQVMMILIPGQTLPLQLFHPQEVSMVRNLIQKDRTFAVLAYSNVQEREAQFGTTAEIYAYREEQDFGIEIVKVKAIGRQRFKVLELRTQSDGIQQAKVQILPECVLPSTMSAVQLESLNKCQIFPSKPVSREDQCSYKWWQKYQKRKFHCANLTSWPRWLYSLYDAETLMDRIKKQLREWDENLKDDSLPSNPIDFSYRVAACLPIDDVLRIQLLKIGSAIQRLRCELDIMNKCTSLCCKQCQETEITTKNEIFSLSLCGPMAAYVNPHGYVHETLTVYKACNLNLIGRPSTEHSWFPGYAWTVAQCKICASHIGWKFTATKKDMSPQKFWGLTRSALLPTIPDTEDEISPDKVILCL
T1 sequence (Q16531 whole entry partner): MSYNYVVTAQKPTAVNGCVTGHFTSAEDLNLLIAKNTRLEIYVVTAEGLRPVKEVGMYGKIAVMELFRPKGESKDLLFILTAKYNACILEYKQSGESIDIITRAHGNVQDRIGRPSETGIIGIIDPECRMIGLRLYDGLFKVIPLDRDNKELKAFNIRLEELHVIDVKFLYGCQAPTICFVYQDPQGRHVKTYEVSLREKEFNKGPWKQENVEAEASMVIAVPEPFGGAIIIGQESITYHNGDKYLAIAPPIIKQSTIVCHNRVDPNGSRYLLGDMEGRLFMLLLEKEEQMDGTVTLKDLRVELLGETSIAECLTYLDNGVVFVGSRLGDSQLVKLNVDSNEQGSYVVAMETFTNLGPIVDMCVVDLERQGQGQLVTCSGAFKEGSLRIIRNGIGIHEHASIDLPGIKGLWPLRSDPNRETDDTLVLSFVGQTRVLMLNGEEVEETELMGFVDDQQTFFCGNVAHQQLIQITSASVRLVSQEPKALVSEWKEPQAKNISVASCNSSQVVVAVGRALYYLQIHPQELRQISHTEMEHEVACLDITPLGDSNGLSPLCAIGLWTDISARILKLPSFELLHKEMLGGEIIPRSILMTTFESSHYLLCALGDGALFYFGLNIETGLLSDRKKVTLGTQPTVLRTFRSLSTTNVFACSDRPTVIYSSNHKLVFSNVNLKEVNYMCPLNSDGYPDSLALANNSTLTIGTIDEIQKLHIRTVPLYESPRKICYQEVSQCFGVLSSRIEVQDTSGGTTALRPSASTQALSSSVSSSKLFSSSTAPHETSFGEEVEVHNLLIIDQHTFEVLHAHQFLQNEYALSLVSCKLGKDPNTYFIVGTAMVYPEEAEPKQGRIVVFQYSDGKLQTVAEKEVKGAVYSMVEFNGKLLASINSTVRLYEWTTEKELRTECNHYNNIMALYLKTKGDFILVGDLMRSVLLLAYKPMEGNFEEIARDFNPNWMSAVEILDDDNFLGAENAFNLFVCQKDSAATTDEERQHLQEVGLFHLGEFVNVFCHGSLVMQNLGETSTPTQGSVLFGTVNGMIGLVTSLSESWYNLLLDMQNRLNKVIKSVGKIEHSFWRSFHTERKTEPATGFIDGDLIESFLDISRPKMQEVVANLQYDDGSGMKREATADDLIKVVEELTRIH

SMILES	Degradation of substrate protein ALK (substrate protein remaining %) (ALK)	IC50 (H1975)	IC50 (SR)	IC50 (H2228)	IC50 (MCF7)
COc1cc(N2CCC(N3CCN(Cc4cc(C5CCC(=O)NC5=O)cnc4F)CC3)CC2)ccc1Nc1ncc(Cl)c(Nc2ccccc2P(C)(C)=O)n1 (stereo not shown) [GT-07611, 3-(5-((4-(1-(4-((5-chloro-4-((2-(dimethylphosphoryl)phenyl)amino)pyrimidin-2-yl)amino)-3-methoxyphenyl)piperidin-4-yl)piperazin-1-yl)methyl)-6-fluoropyridin-3-yl)piperidine-2,6-dione]	A (A is defined as 0% ≤ substrate protein remaining % ≤ 80%)	500 to 1000 nM	1 to 10 nM	10 to 50 nM	–
COc1cc(N2CCC(N(C)Cc3ccnc(C4CCC(=O)NC4=O)c3)CC2)ccc1Nc1ncc(Cl)c(Nc2ccccc2P(C)(C)=O)n1 (stereo not shown) [GT-07697, 3-(4-(((1-(4-((5-chloro-4-((2-(dimethylphosphoryl)phenyl)amino)pyrimidin-2-yl)amino)-3-methoxyphenyl)piperidin-4-yl)(methyl)amino)methyl)pyridin-2-yl)piperidine-2,6-dione]	A (A is defined as 0% ≤ substrate protein remaining % ≤ 80%)	–	10 to 50 nM	100 to 500 nM	500 to 1000 nM
COc1cc(N2CCN(Cc3ccc(N4CCC(=O)NC4=O)cn3)CC2)ccc1Nc1ncc(Cl)c(Nc2ccccc2P(C)(C)=O)n1 [GT-07349, 1-(6-((4-(4-((5-chloro-4-((2-(dimethylphosphoryl)phenyl)amino)pyrimidin-2-yl)amino)-3-methoxyphenyl)piperazin-1-yl)methyl)pyridin-3-yl)dihydropyrimidine-2,4(1H,3H)-dione]	A (A is defined as 0% ≤ substrate protein remaining % ≤ 80%)	500 to 1000 nM	50 to 100 nM	500 to 1000 nM	–
COc1cc(N2CCN(Cc3cccc(N4CCC(=O)NC4=O)c3)CC2)ccc1Nc1ncc(Cl)c(Nc2ccccc2P(C)(C)=O)n1 [GT-07348, 1-(3-((4-(4-((5-chloro-4-((2-(dimethylphosphoryl)phenyl)amino)pyrimidin-2-yl)amino)-3-methoxyphenyl)piperazin-1-yl)methyl)phenyl)dihydropyr imidine-2,4(1H,3H)-dione]	A (A is defined as 0% ≤ substrate protein remaining % ≤ 80%)	500 to 1000 nM	10 to 50 nM	100 to 500 nM	–
CCc1cc2c(cc1N1CCN(Cc3ccc(N4CCC(=O)NC4=O)nc3)CC1)C(C)(C)c1[nH]c3cc(C#N)ccc3c1C2=O [GT-07327, 8-(4-((6-(2,4-dioxotetrahydropyrimidin-1(2H)-yl)pyridin-3-yl)methyl)piperazin-1-yl)-9-ethyl-6,6-dimethyl-11-oxo-6,11-dihydro-5H-benzo[b]carbazole-3-carbonitrile]	A (A is defined as 0% ≤ substrate protein remaining % ≤ 80%)	–	1 to 10 nM	100 to 500 nM	500 to 1000 nM
Cc1cc(Nc2ncc(Cl)c(Nc3ccccc3S(=O)(=O)C(C)C)n2)c(OC(C)C)cc1C1CCN(Cc2cccc(NC3CCC(=O)NC3=O)c2)CC1 (stereo not shown) [GT-07594, 3-((3-((4-(4-((5-chloro-4-((2-(isopropylsulfonyl)phenyl)amino)pyrimidin-2-yl)amino)-5-isopropoxy-2-methylphenyl)piperidin-1-yl)methyl)phenyl)amino)pip eridine-2,6-dione]	A (A is defined as 0% ≤ substrate protein remaining % ≤ 80%)	–	50 to 100 nM	100 to 500 nM	–
Cc1cc(Nc2ncc(Cl)c(Nc3ccccc3S(=O)(=O)C(C)C)n2)c(OC(C)C)cc1C1CCN(Cc2cc(N3CCC(=O)NC3=O)ncc2F)CC1 [GT-07595, 1-(4-((4-(4-((5-chloro-4-((2-(isopropylsulfonyl)phenyl)amino)pyrimidin-2-yl)amino)-5-isopropoxy-2-methylphenyl)piperidin-1-yl)methyl)-5-fluoropyridin-2-yl)dihydropyrimidine-2,4(1H,3H)-dione]	A (A is defined as 0% ≤ substrate protein remaining % ≤ 80%)	–	100 to 500 nM	500 to 1000 nM	–
CCc1cc2c(cc1N1CCN(Cc3cccc(NC4CCC(=O)NC4=O)c3)CC1)C(C)(C)c1[nH]c3cc(C#N)ccc3c1C2=O (stereo not shown) [GT-07328, 8-(4-(3-((2,6-dioxopiperidin-3-yl)amino)benzyl)piperazin-1-yl)-9-ethyl-6,6-dimethyl-11-oxo-6,11-dihydro-5H-benzo[b]carbazole-3-carbonitrile]	A (A is defined as 0% ≤ substrate protein remaining % ≤ 80%)	–	10 to 50 nM	100 to 500 nM	–
CCc1cc2c(cc1N1CCN(Cc3ccc(N4CCC(=O)NC4=O)cc3)CC1)C(C)(C)c1[nH]c3cc(C#N)ccc3c1C2=O [GT-07324, 8-(4-(4-(2,4-dioxotetrahydropyrimidin-1(2H)-yl)benzyl)piperazin-1-yl)-9-ethyl-6,6-dimethyl-11-oxo-6,11-dihydro-5H-benzo[b]carbazole-3-carbonitrile]	A (A is defined as 0% ≤ substrate protein remaining % ≤ 80%)	–	10 to 50 nM	100 to 500 nM	500 to 1000 nM
COc1cc(N2CCN(Cc3ccc(N4CCC(=O)NC4=O)cc3F)CC2)ccc1Nc1ncc(Cl)c(Nc2ccccc2P(C)(C)=O)n1 [GT-07347, 1-(4-((4-(4-((5-chloro-4-((2-(dimethylphosphoryl)phenyl)amino)pyrimidin-2-yl)amino)-3-methoxyphenyl)piperazin-1-yl)methyl)-3-fluorophenyl)dihydropyrimidine-2,4(1H,3H)-dione]	A (A is defined as 0% ≤ substrate protein remaining % ≤ 80%)	100 to 500 nM	10 to 50 nM	100 to 500 nM	–
CCc1cc2c(cc1N1CCC(N3CCN(Cc4ccc(N5CCC(=O)NC5=O)nc4)CC3)CC1)C(C)(C)c1[nH]c3cc(C#N)ccc3c1C2=O [GT-07312, 8-(4-(4-((6-(2,4-dioxotetrahydropyrimidin-1(2H)-yl)pyridin-3-yl)methyl)piperazin-1-yl)piperidin-1-yl)-9-ethyl-6,6-dimethyl-11-oxo-6,11-dihydro-5H-benzo[b]carbazole-3-carbonitrile]	A (A is defined as 0% ≤ substrate protein remaining % ≤ 80%)	–	1 to 10 nM	50 to 100 nM	500 to 1000 nM
CCc1cc2c(cc1N1CCN(Cc3cccc(N4CCC(=O)NC4=O)c3)CC1)C(C)(C)c1[nH]c3cc(C#N)ccc3c1C2=O [GT-07325, 8-(4-(3-(2,4-dioxotetrahydropyrimidin-1(2H)-yl)benzyl)piperazin-1-yl)-9-ethyl-6,6-dimethyl-11-oxo-6,11-dihydro-5H-benzo[b]carbazole-3-carbonitrile]	A (A is defined as 0% ≤ substrate protein remaining % ≤ 80%)	–	10 to 50 nM	100 to 500 nM	–
Cc1cc(Nc2ncc(Cl)c(Nc3ccccc3S(=O)(=O)C(C)C)n2)c(OC(C)C)cc1C1CCN(Cc2ccnc(N3CCC(=O)NC3=O)c2)CC1 [GT-07596, 1-(4-((4-(4-((5-chloro-4-((2-(isopropylsulfonyl)phenyl)amino)pyrimidin-2-yl)amino)-5-isopropoxy-2-methylphenyl)piperidin-1-yl)methyl)pyridin-2-yl)dihydropyrimidine-2,4(1H,3H)-dione]	A (A is defined as 0% ≤ substrate protein remaining % ≤ 80%)	–	10 to 50 nM	100 to 500 nM	100 to 500 nM
Cc1cc(Nc2ncc(Cl)c(Nc3ccccc3S(=O)(=O)C(C)C)n2)c(OC(C)C)cc1C1CCN(Cc2ccc(N3CCC(=O)NC3=O)cc2)CC1 [GT-07592, 1-(4-((4-(4-((5-chloro-4-((2-(isopropylsulfonyl)phenyl)amino)pyrimidin-2-yl)amino)-5-isopropoxy-2-methylphenyl)piperidin-1-yl)methyl)phenyl)dihydropyr imidine-2,4(1H,3H)-dione]	A (A is defined as 0% ≤ substrate protein remaining % ≤ 80%)	–	10 to 50 nM	100 to 500 nM	500 to 1000 nM
